Results: patent US20260048046A1, “METHOD FOR IMPROVING GROWTH PERFORMANCE IN FEEDLOT CATTLE” (Elanco US Inc., priority 2022, published 2026)
“Also recorded” adds a separate entry of the source.

System: beef cattle
Test: 91-d study: carcass characteristics
Format: in vivo
Details: for Adjusted fat thickness / Calculated yield grade / HGW / IM area / KPH / Dressing percentage / Lean maturity / Overall maturity / Skeletal maturity / Marbling score: 91-d treatment, LS mean; for Dressing percentage: unshrunk BW basis; for Lean maturity / Overall maturity / Skeletal maturity: 100 A, 200 B maturity; for Marbling score: 500 Small, 600 Modest
Description: A randomized complete block design was used to evaluate the effect of lubabegron (LUB) on performance over a 91-d period using 336 beef cattle (BW=453±34.5 kg) housed in cattle pen enclosures (CPE). Four LUB treatments were included in the study based on dose: 0.0 (control or CON), 1.38, 5.5, and 22.0 (mg·kg^−1 of DM). Because there was a limited number of CPE (n=8), three sequential cycles (blocks) were required to generate 6 replicates of each dose×sex combination. As such, 112 cattle (56 steers and 56 heifers) were housed concurrently within each cycle across the eight CPE (14 cattle/CPE), with each dose×sex combination being represented by a single CPE/cycle. To assure different frame sizes of cattle were represented, cattle in cycles one and three were large-frame Continental crossbreds, whereas cattle in cycle 2 were medium-frame British crossbreds.
On day 91, cattle were loaded onto double-decked aluminum semi-trailers and transported ˜1,000 km to a commercial abattoir where they were slaughtered following an ˜5 to 9 h lairage. Carcass identification was maintained throughout the slaughter process by recording ear tag sequence at stunning and then cross-matching to sequentially numbered carcass tags. Hot carcass weights and KPH were measured following industry standard processing, and yield grade (YG) and quality grade data were collected from left carcass sides by trained university personnel after 22 h in a spray-chill system.
Data were analyzed using version 9.2 of SAS (SAS Institute, Cary, NC), and the individual CPE were considered the experimental unit. Continuous variables were analyzed using PROC MIXED, with treatment (LUB dose), sex, and the dose×sex interaction as fixed effects, and cycle as the random effect included in the model. If the dose×sex interaction was not significant (P>0.05), the main effect of dose pooled across sexes was evaluated. When the main effect of dose was significant (P≤0.05) or tended to be significant (0.05≤P≤0.10), planned contrasts comparing each LUB dose to CON were performed in a pairwise fashion. If the dose×sex was significant (P≤0.05) planned contrasts comparing each LUB dose to CON within sex were performed in a pairwise fashion. Treatment means were estimated using the LSMEANS statement.
Discrete variables were analyzed with a generalized linear mixed model using a binomial distribution and logit link function in PROC GLIMMIX. The classification of fixed and random effects and the handling of interactions and pairwise comparisons were performed in a similar manner as the continuous variables. Statistical analyses for YG were performed on both continuous and discrete (YG 1=1.00 to 1.99, YG 2=2.00 to 2.99, and so on) forms of data, and quality grades were further sorted into the five categories routinely used for determining premium or discount adjustments when cattle are marketed on a grid-based system (U.S. Prime, upper 2/3 Choice, low Choice, Select, and Standard). […] Fisher's exact test was performed using PROC FREQ to evaluate the frequency distribution of the CON cattle compared with LUB. Statistical significance for the main effects of dose was determined by P≤0.05 and tendencies were declared when 0.05≤P≤0.10.

SMILES: CC(C)(Cc1ccc(Oc2ncccc2C#N)cc1)NC[C@H](O)COc1ccccc1-c1cccs1 [LUB, 2-{4-[2-({(2S)-2-Hydroxy-3-[2-(2-thienyl)phenoxy]propyl}amino)-2-methylpropyl]phenoxy}nicotinonitrile]
- Effect of LUB treatment on skeletal, lean, or overall maturity (91 d, P≥0.262): no effect
- Probability of cattle producing a YG3 carcass (91 d, YG as discrete variable, CON vs LUB-fed): greater (P<0.019) for CON-than LUB-fed cattle
- Probability of cattle producing YG1, YG2, or YG4 carcasses (91 d, across treatments, P≥0.233): similar
- Effect of LUB treatment on calculated YG (91 d, all LUB doses vs CON, P=0.155): no effect
- Effect of LUB treatment on adjusted fat thickness (91 d, all LUB doses vs CON, P=0.579): not affected; also recorded: no change
- Dark cutter incidence (91 d, only a single carcass over the entire study): not influenced by treatment
- Increased HCW (LUB 1.38 mg·kg^−1 DM (first of the respective treatments), 91 d): 15 kg animal-1
- Adjusted fat thickness (LUB 1.38 mg·kg^−1 DM): 1.15 cm
- Calculated yield grade (LUB 1.38 mg·kg^−1 DM): 2.37
- HGW (LUB 1.38 mg·kg^−1 DM): 364 kg
- IM area (LUB 1.38 mg·kg^−1 DM): 94.8 cm^2
- KPH (LUB 1.38 mg·kg^−1 DM): 1.99%
- Dressing percentage (LUB 1.38 mg·kg^−1 DM): 62.4%
- Lean maturity (LUB 1.38 mg·kg^−1 DM): 163
- Overall maturity (LUB 1.38 mg·kg^−1 DM): 168
- Skeletal maturity (LUB 1.38 mg·kg^−1 DM): 170
- Marbling score (LUB 1.38 mg·kg^−1 DM): 573
- Increased HCW (LUB 5.5 mg·kg^−1 DM (second of the respective treatments), 91 d): 16 kg animal-1
- Adjusted fat thickness (LUB 5.5 mg·kg^−1 DM): 1.24 cm
- Calculated yield grade (LUB 5.5 mg·kg^−1 DM): 2.41
- HGW (LUB 5.5 mg·kg^−1 DM): 365 kg
- KPH (LUB 5.5 mg·kg^−1 DM): 1.96%
- Dressing percentage (LUB 5.5 mg·kg^−1 DM): 62.7%
- Lean maturity (LUB 5.5 mg·kg^−1 DM): 167
- Overall maturity (LUB 5.5 mg·kg^−1 DM): 169
- Skeletal maturity (LUB 5.5 mg·kg^−1 DM): 170
- Marbling score (LUB 5.5 mg·kg^−1 DM): 560
- Increased HCW (LUB 22.0 mg·kg^−1 DM (third of the respective treatments), 91 d): 16 kg animal-1
- Adjusted fat thickness (LUB 22.0 mg·kg^−1 DM): 1.19 cm
- Calculated yield grade (LUB 22.0 mg·kg^−1 DM): 2.25
- HGW (LUB 22.0 mg·kg^−1 DM): 365 kg
- IM area (LUB 22.0 mg·kg^−1 DM): 96.8 cm^2
- KPH (LUB 22.0 mg·kg^−1 DM): 1.61%
- Dressing percentage (LUB 22.0 mg·kg^−1 DM): 62.8%
- Lean maturity (LUB 22.0 mg·kg^−1 DM): 163
- Overall maturity (LUB 22.0 mg·kg^−1 DM): 168
- Skeletal maturity (LUB 22.0 mg·kg^−1 DM): 172
- Marbling score (LUB 22.0 mg·kg^−1 DM): 562
- Carcass weights heavier than CON (cattle fed LUB (1.38, 5.5, 22.0 mg·kg^−1 DM), 91 d): about 15 kg
- Probability of grading high Choice vs CON (cattle fed LUB, 91 d, P=0.004): lower
- Probability of grading low Choice vs CON (cattle fed LUB, 91 d, P=0.021): greater
